Experimental data published in publication PMC3527108 (Journal of medicinal chemistry, 2012).
Where two headings read alike, the source gives them in different places.

How the values were obtained:
Caco-2 cells [1] = settings: cited from earlier work
[2] = system: GI transit in morphine naive mice; settings: similar assay, similar dose (about 10 mg/kg); cited from earlier work
[3] = system: GI transit in morphine-pelleted mice; settings: cited from earlier work
[4] = system: antinociception (tail flick) in mice; assay: Warm-water tail flick test; assay type: in vivo; settings: morphine 10 mg/kg, dose up to 30 mg/kg
Caco-2 cells [5] = assay: Bidirectional transport in Caco-2 cells; assay type: in vitro ADME; settings: apical/basolateral, up to 2 h
mu opioid receptor (MOR) = mu opioid receptor (MOR) (Homo sapiens, UniProt P35372); assay: Competitive radioligand binding assay, MOR; settings: from Ki values
Chain of mu opioid receptor (MOR) (P35372 whole entry, species assumed): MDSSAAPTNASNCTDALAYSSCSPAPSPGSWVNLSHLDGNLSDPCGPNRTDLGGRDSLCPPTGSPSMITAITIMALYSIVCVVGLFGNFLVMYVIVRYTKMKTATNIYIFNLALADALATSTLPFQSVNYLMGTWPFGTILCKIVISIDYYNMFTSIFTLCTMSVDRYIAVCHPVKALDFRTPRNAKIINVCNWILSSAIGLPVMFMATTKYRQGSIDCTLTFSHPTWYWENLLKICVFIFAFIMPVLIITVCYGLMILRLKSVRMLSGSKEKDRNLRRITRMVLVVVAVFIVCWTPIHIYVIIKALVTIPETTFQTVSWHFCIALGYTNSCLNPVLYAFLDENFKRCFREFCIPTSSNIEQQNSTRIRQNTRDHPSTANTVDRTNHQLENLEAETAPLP

[6] = system: opioid-induced constipation in patients; settings: cited from earlier work; for patients with laxation within 4 hours after the first dose: clinical trial, subcutaneous
[7] = low due to significant hepatic first-pass; cited from earlier work

SMILES: O=C(N[C@@H]1CC[C@@]2(O)[C@H]3Cc4ccc(O)c5c4[C@@]2(CCN3CC2CC2)[C@H]1O5)c1ccncc1 [NAP, 17-cyclopropylmethyl-3, 14β-dihydroxy-4,5α-epoxy-6β-[(4’ -pyridyl)carboxamido]morphinan]
- apparent permeability (Caco-2 cells [1]): significantly low
- effect of compound alone on intestinal motility [2]: intestinal motility decreased
- ED50 in the GI transit assay ([3]; GI transit assay): 8.8 µg/kg
- incidence of diarrhea ([3]; high doses): incidence of diarrhea associated with high doses

SMILES: O=C(CNC(=O)c1ccncc1)N[C@@H]1CC[C@@]2(O)[C@H]3Cc4ccc(O)c5c4[C@@]2(CCN3CC2CC2)[C@H]1O5 [Compound 12, 17-Cyclopropylmethyl-3,14β-dihydroxy-4,5α-epoxy-6β-{2′-[(pyridine-4′′-yl)carboxamido]acetamido}morphinan]
- antagonism of antinociceptive effect of morphine [4]: no apparent antagonism effect

SMILES: Cc1cnccc1C(=O)N[C@@H]1CC[C@@]2(O)[C@H]3Cc4ccc(O)c5c4[C@@]2(CCN3CC2CC2)[C@H]1O5 [Compound 8, 17-Cyclopropylmethyl-3,14β-dihydroxy-4,5α-epoxy-6β-{[4′-(3′-methylpyridyl)]carboxamido}morphinan]
- apparent permeability / bidirectional transport (Caco-2 cells [5]): low permeability

SMILES: O=C(N[C@@H]1CC[C@@]2(O)[C@H]3Cc4ccc(O)c5c4[C@@]2(CCN3CC2CC2)[C@H]1O5)c1ccnc(Cl)c1 [Compound 1, 17-Cyclopropylmethyl-3,14β-dihydroxy-4,5α-epoxy-6β-{[4′-(2′-chloropyridyl)]carboxamido}morphinan]
- MOR selectivity over DOR (mu opioid receptor (MOR)): over 1000 fold

SMILES: C[N@+]1(CC2CC2)CC[C@]23c4c5ccc(O)c4O[C@H]2C(=O)CC[C@@]3(O)[C@H]1C5 [MNTX, methylnaltrexone]
- efficiency to induce SBM [6]: ≤ 62%
- patients with laxation within 4 hours after the first dose ([6]; placebo 14%): 62%
- patients with laxation within 4 hours after the first dose ([6]; placebo 15%): 48%

SMILES: C=CCN1CC[C@]23c4c5ccc(O)c4O[C@H]2C(=O)CC[C@@]3(O)[C@H]1C5 [Naloxone]
- systemic bioavailability [7]: ~ 2%
